Laboratory results from patent publication US20170049843A1, “Hepatocyte Growth Factor Mimics as Therapeutic Agents” (WASHINGTON STATE UNIVERSITY, priority 2011, published 2017).
Entries after “also recorded” stand apart in the source; their conditions may differ. Where a SMILES comes first, the peptide text is derived from it. [ ]: non-standard residue; d: D form. dNle = CCCC[C@@H](N)C(=O)O; Ahx = NCCCCCC(=O)O

Assays:
MDCK cells [1] = experiment: HGF-dependent MDCK cell proliferation (MTT); assay type: cell-based, canine; conditions: 10^−10 M, 4 days, HGF 10 ng/ml
Description: 5000 MDCK cells were seeded into the wells of a 96 well plates in 10% FBS DMEM. To induce cellular quiescence, the cells were serum deprived for 24 h prior to initiating the treatments. Following serum starvation, 10 ng/ml HGF alone and with various concentrations of 6-AH analogs or PBS vehicle were added to the media. The cells were allowed to grow under these conditions for 4 days with a daily addition of 6-AH analogs. On the fourth day, 1 mg/ml of 1-(4, 5-Dimethylthiazol-2-yl) 3, 5-diphenylformazan reagent (MTT, Sigma-Aldrich) prepared in PBS was added to the cells and incubated for 4 h. Dimethyl sulfoxide diluted in a 0.01M glycine buffer was added to solubilize the cell membranes and the absorbance of reduced MTT in the buffer was quantitated at 590 nm using a plate reader (Biotek Synergy 2, Winooski, Vt.). HGF-dependent proliferation was determined by subtracting the basal proliferation (in the absence of HGF) from total proliferation rates in groups containing HGF.

HGF [2] = target: T1, HGF (Homo sapiens, UniProt P14210); experiment: HGF binding, competition with 3H-Hinge
T1 construct: purchased R&D Systems (Minneapolis, Minn.)
T1 sequence (P14210 32-728): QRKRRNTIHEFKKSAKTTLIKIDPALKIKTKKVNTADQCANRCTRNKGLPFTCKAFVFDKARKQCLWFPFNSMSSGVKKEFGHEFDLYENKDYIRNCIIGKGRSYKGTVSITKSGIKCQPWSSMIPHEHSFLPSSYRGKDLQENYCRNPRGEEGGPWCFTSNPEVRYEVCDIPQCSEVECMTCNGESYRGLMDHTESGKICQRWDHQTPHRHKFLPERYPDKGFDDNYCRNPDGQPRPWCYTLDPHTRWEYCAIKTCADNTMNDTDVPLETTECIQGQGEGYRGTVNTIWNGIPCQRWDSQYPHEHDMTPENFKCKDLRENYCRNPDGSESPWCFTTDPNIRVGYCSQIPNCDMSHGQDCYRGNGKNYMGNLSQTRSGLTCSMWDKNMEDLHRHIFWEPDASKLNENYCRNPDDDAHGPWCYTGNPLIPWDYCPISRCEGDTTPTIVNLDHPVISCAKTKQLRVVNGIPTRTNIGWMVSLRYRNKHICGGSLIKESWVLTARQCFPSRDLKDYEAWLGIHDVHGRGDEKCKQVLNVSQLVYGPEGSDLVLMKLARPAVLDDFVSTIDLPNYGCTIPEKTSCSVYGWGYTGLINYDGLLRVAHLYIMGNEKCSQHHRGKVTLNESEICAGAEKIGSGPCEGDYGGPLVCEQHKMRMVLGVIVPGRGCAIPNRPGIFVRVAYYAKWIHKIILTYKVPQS
Description: The binding of 6-AH analogs to HGF was assessed by competition using a soluble binding assay. 250 μl of PBS containing human HGF (1.25 ng) were incubated with ^3H-Hinge, the central dimerization domain of HGF, in the presence of varying concentrations of 6-AH analogs between 10^−13 M to 10^−7M (half-log dilutions) for 40 min at 37° C. The incubates were then spun through Bio-Gel P6 spin columns (400 μl packed volume) for 1 min to separate free and bound ^3H-Hinge and the eluent was collected. Five milliliters of scintillation fluid was added to the eluent, which contained the HGF bound ^3H-Hinge, and was then counted using scintillation counter. Total disintegrations per minute of bound ^3H-Hinge were calculated based on machine counting efficiency. The Ki values for the binding of the peptides were determined using the Prism 5. Competition binding curves were performed in triplicate.

MDCK cells [3] = experiment: Inhibition of HGF-dependent scattering in MDCK cells; assay type: cell-based, canine; conditions: HGF 20 ng/ml, 48 h
Description: (§1) MDCK cells were grown to 100% confluency on the coverslips in six-well plates and washed twice with PBS. The confluent coverslips were then aseptically transferred to new six well plates containing 900 μl serum free DMEM. Norleual, Hinge peptide, and/or HGF (20 ng/ml) were added to appropriate wells. Control wells received PBS vehicle. Plates were incubated at 37° C. with 5% CO2 for 48 hours. Media was removed and cells were fixed with methanol. Cells were stained with Diff-Quik Wright-Giemsa (Dade-Behring, Newark, Del.) and digital images were taken. Coverslips were removed with forceps and more digital images were captured. Pixel quantification of images was achieved using Image J and statistics were performed using Prism 5 and InStat v.3.05.
as §1, with “h.” for “hours.”, “v.3.05 (GraphPad; San Diego, Calif.).” for “v.3.05.”

Met = experiment: Inhibition of HGF-dependent Met phosphorylation in HEK293 cells; assay type: cell-based, human; conditions: 10 min
Description: HEK293 cells were seeded in 6 well tissue culture plates and grown to 95% confluency in DMEM containing 10% FBS. The cells were serum deprived for 24 h prior to the treatment to reduce the basal levels of phospho-Met. Following serum starvation, cocktails comprised of vehicle and HGF with/without 6-AH analogs were prepared and pre-incubated for 30 min at room temperature. The cocktail was then added to the cells for 10 min to stimulate the Met receptor and downstream proteins. Cells were harvested using RIPA lysis buffer (Millipore; Billerica, Mass.) fortified with phosphatase inhibitor cocktails 1 and 2 (Sigma-Aldrich; St. Louis, Mo.). The lysate was clarified by centrifugation at 15,000 n×g for 15 min, protein concentrations were determined using the BCA total protein assay (Pierce), and then appropriate volumes of the lysates were diluted with 2× reducing Laemmli buffer and heated for ten min at 95° C. Samples containing identical amounts of protein were resolved using SDS-PAGE (Criterion, BioRad Laboratories), transferred to nitrocellulose, and blocked in Tris-buffered saline (TBS) containing 5% milk for 1 h at room temperature. The phospho-Met antibody were added to the blocking buffer at a final concentration of 1:1000 and incubated at 4° C. overnight with gentle agitation. The membranes were then washed several times with water and TBS ([…]), a 1:5000 dilution of horseradish-peroxidase conjugated goat anti-rabbit antiserum was added, and the membranes further incubated for 1 h at room temperature. Proteins were visualized using the Supersignal West Pico Chemiluminescent Substrate system (Pierce, Fenton, Mo.) and molecular weights determined by comparison to protein ladders (BenchMark, Invitrogen, and Kaleidoscope, BioRad). Film images were digitized and analyzed using a UVP phosphoimager.

HGF [4] = target: T1, HGF; experiment: HGF dimerization; assay type: biochemical; conditions: analog at 10^−10M, 30 minute incubation with heparin
Description: HGF dimerization was assessed using PAGE followed by silver staining (Kawas et al., 2011). Human HGF at a concentration of 0.08 ng/μl with or without 6-AH analogs was incubated with heparin at a final concentration of 5 μg/ml. Loading buffer was then added to each sample and the mixture separated by native PAGE using gradient Criterion XT precast gels (4-12% Bis-Tris; Biorad Laboratories, Hercules, Calif.). Next the gel was silver stained for the detection of the HGF monomers and dimers. Bands were quantitated from digital images using a UVP phosphoimager (Upland, Calif.).

[5] = Microsomal metabolism, rat liver microsomes; assay type: in vitro ADME; conditions: over 90 min, data not shown
in vivo = conditions: male, Sprague-Dawley, rat, iv, 24 mg/kg
[6] = system: B16-F10 murine melanoma cells; experiment: B16-F10 melanoma lung colony formation; assay type: in vivo, mouse; conditions: C57BL/6 mice, daily IP 10 μg/kg/day or 100 μg/kg/day, 14 days
Description: Six to eight month old C57BL/6 mice were injected with 400,000 B16-F10 cells in 200 μl PBS by tail vein injection and subsequently received daily intraperitoneal injections of either D-Nle-X-Cys-NH—(CH2)5—CONH2 (10 μg/kg and 100 μg/kg) or a PBS vehicle control. Two weeks later, mice were anesthetized and lungs were perfused with PBS and removed. Photos were taken and lungs were solubilized in 1% Triton x-100, 20 mM Tris, 0.15 M NaCl, 2 mM EDTA, and 0.02% sodium azide. Samples were disrupted by sonication (Mixonix, Farmingdale, N.Y.) and spun. The supernatant was transferred to a 96 well plate and melanin absorbance at 410 nm was measured using a plate reader.

| affinity for HGF (in words) (HGF [2]) | inhibition of HGF dimerization (HGF [4]) | Phase I metabolism in rat liver microsomes [5] | C0 (in vivo) | Structure (SMILES) | inhibition of HGF-dependent MDCK cell proliferation (MDCK cells [1]) | inhibition of HGF-dependent scattering in MDCK cells (MDCK cells [3]) | inhibition of HGF-dependent Met phosphorylation (Met) | inhibition of HGF dimerization (HGF [4]; listed as Tyr) | pulmonary colonization by B16-F10 melanoma cells [6] | inhibition of HGF dimerization (HGF [4]; listed as Cys) |
| --- | --- | --- | --- | --- | --- | --- | --- | --- | --- | --- |
| bind HGF with high affinity | completely block HGF dimer formation | no detectable metabolism over 90 min | 68.2 ± 32.2 µg/mL | CCCC[C@@H](N)C(=O)N[C@@H](Cc1ccc(O)cc1)C(=O)N[C@H](C(=O)NCCCCCC(N)=O)[C@@H](C)CC (H-[dNle]YI[Ahx]-NH2) | marked inhibitory activity | different from the HGF alone group but not different from the control group | able to block Met auto-phosphorylation | statistically different than the HGF treated group |  |  |
| bind HGF with high affinity | completely block HGF dimer formation |  |  | CCCC[C@@H](N)C(=O)N[C@@H](CS)C(=O)N[C@H](C(=O)NCCCCCC(N)=O)[C@@H](C)CC [D-Nle-Cys-Ile-NH—(CH2)5—CONH2] (H-[dNle]CI[Ahx]-NH2) | marked inhibitory activity | different from the HGF alone group but not different from the control group | able to block Met auto-phosphorylation |  | suppressed pulmonary colonization; also recorded: radically prevented lung colonization; also recorded: obvious reduction in melanoma colonies | statistically different than the HGF treated group |
